# Results: patent publication US6231894A, “Treatments based on discovery that nitric oxide synthase is a paraquat diaphorase” (Duke University, priority 1999, dated 2001)
# Legend:
# [1] = system: Rabbit aortic rings; experiment: Acetylcholine-induced (EDRF) relaxation of aortic rings
# Method: Rabbit aortic rings were treated with increasing concentrations of paraquat or L-NAME (2 mM) prior to initiating a constriction response with 1 μM phenylephrine (initial contraction).
# New Zealand white male rabbits weighting 3-4 kg were anaesthetized with phenobarbital (30 mg/kg/iv). The descending thoracic aorta was isolated and placed in Krebs-Henseleit buffer (pH 7.4) and stored at 4° C. until used. The vessels were cut into 5 mm rings and submerged in 25 ml double jacketed tissue baths containing Krebs-Henseleit buffer bubbled with 95% oxygen and 5% carbon dioxide at 37° C. Rings were hung on stainless steel stirrups connected to calibrated force transducers. Rings were equilibrated with 2 g resting tension for 1 hour before use and contracted with phenylephrine (1 μM). Rings were incubated with paraquat for 15 minutes before acetylcholine-induced or exogenous relaxations were performed.
# Endothelial-derived relaxing factor (EDRF) responses were initiated by addition of acetylcholine.
# [2] = system: aconitase; experiment: Aconitase/fumarase activity ratio in macrophage lysates; assay type: cell-based; conditions: 24 hours, FIG. 5
# Method: Aconitase activity (a sensitive marker of O2^- and peroxynitrite formation) and fumarase activity were measured as described in Patel, M., et al., Nuron 16, 345-355 (1996). Specifically aconitase activity was determined spectrophotometrically by monitoring the formation of cis-aconitate from isocitrate at 240 nm. Fumarase activity was measured by monitoring the increased absorbence at 240 mn following the formation of fumarate from L-malate. Aconitase activity was expressed as a ratio of aconitase activity to flimarase activity in order to correct for differences in cell numbers.
# Aconitase activity was measured in cell lysates 24 hours after cytomix, DETA nonoate and paraquat treatments. Macrophages were grown in 24-well plates and treated with cytomix or 250 μM DETA NONOate. Control, activated (cytomix) and DETA NONOate groups were treated with paraquat (0.1 mM) or not treated with paraquat. The results are shown in FIG. 5 where an asterisk indicates a significant difference from control group, p<0.05.
# [3] = system: solid tumor; experiment: Working Example VII: solid tumor patient; assay type: in vivo, human; conditions: IV infusion 4 milligram per kilogram, seven cycles, after 5,6 MEXAA; two weeks
# Method: A person is given the anti-tumor agent 5,6 dimethylxanthemone-4-acetic acid (5,6 MEXAA) to treat a solid tumor identified by biopsy on the left lower extremity, and lung. […] At this time, the patient is treated with intravenous infusion of paraquat (4 milligram per kilogram) for seven cycles.
# [4] = biological target: T1, Recombinant rat neuronal nitric oxide synthase (NOS1) (Rattus norvegicus, UniProt P29476); experiment: NADPH oxidation (paraquat diaphorase activity) by recombinant rat neuronal nitric oxide synthase; assay type: biochemical
# T1 construct: purchased Oxis, Portland, Oreg
# T1 sequence (P29476 whole entry): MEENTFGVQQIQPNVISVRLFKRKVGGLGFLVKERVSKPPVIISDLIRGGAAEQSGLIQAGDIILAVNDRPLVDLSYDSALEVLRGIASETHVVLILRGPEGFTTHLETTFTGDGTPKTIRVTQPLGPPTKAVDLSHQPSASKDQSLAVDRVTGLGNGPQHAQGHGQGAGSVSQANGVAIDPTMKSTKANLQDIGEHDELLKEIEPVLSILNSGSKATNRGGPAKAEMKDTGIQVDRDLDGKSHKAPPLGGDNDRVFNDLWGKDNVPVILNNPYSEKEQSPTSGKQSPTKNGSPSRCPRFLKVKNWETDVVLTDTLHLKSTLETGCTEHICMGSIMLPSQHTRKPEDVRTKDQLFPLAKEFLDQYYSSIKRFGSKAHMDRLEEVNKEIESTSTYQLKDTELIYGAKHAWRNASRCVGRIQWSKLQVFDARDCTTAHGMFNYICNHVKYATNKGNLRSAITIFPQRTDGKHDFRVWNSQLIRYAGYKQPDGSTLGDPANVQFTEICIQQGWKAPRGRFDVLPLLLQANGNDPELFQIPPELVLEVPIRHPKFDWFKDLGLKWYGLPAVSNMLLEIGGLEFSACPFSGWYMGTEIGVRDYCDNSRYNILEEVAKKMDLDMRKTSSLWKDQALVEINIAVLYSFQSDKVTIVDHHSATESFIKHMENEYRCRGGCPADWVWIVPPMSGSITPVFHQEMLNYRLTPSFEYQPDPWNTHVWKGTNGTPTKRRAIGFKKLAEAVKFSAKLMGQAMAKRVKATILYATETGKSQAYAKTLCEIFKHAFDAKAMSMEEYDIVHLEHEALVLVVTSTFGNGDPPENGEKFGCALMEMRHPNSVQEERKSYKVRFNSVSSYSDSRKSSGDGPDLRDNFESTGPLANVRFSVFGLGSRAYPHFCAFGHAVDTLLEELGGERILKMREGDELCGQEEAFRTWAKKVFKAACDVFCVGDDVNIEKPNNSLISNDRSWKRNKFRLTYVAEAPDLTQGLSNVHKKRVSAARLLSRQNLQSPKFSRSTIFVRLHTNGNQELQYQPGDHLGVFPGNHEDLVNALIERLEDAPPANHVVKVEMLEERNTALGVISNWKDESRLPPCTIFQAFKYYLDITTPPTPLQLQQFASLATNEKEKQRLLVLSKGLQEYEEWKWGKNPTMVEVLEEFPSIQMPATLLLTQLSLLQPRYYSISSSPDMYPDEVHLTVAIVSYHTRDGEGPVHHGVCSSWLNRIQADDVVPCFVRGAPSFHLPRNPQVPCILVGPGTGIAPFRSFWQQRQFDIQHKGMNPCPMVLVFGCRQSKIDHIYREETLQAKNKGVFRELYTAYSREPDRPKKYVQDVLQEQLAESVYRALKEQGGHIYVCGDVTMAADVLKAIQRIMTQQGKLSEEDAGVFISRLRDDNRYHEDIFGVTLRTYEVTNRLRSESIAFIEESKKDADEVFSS
# Method: Recombinant rat neuronal nitric oxide synthase (NOS1, Oxis, Portland, Oreg.), a constitutive enzyme, was used to assay NADPH oxidation in the presence of increasing concentrations of paraquat. Reactions (0.2 ml) were performed in bis-tris propane buffer (40 mM) containing L-arginine (1 mM), CaCl2 (1.2 mM), EDTA (0.9 mM), NADPH (0.35 mM), dithiothreitol (3 mM), tetrahydrobiopterin (4 μM), catalase (1 μg/ml) and calmodulin (200 U/ml) at pH 7.4. Reactions were initiated by the addition of 1.5 U of NOS1, and the oxidation of NADPH was continuously monitored at 340 nm for 1 minute at 37° C. in a plate reader. The rate of NOS-mediated NADPH oxidation was determined using an extinction coefficient of 6.22 mM^-1 cm^-1 after subtracting the baseline of NADPH oxidation.
# The experiment of Background Example 1 for NADPH oxidation was carried out in the presence and absence of 25 μM paraquat, without any NOS inhibitor (control), in the presence of L-NAME (1 mM) or in the presence of 1 mM L-NMMA. […] Only L-NAME shut down the NADPH oxidase activity.
# [5] = system: nitrotyrosine; experiment: Nitrotyrosine staining in macrophages; assay type: cell-based; conditions: combination of paraquat and cytomix
# Method: Western blot analysis was carried out as follows. Cells were lysed in ice-cold 50 mM Tris buffer (pH 7.4) containing 1% sodium dodecyl sulfate and protease inhibitor cocktail (Boehringer Mannheim). Protein (10 μg) was separated on a 4-20% gradient SDS-PAGE at 250 V for 30 minutes and transferred onto a nitrocellulase membrane at 30 V for 12 hours. Proteins were detected using polyclonal antibodies against human NOS3 (TransductionLaboratories; 1/1000) and nitrated keyhole limpet hemocyanin, nitrotyrosine (Upstate Biology; 1/5000). Primary antibodies were detected with a goat anti-rabbit-HRP antibody (Jackson; 1/15,000) and developed using an ECL kit (Amersham).
# The RAW-264.7 monocyte macrophage cells line (TIB-71) was purchased from the American Type Culture Collection (Manassas, Va.). The cells were grown in T-75 flasks containing DMEM (Gibco-BRL, Grand Island, N.Y.) supplemented with 1 mM pyruvate, 4.5 g/L glucose and […] fetal bovine serum Macrophages were plated at 2.0×10^4 cells/well in 24-well plates and experiments were performed when cells were near confluence. […]
# NOS2 was induced in RAW cells using a mixture of interferon-γ and lipopolysaccharide (LPS) referred to as "cytomix." Unstimulated (basal) and activated (cytomix) macrophages were treated with 0.1 mM paraquat or not treated with paraquat and cytotoxicity and NO production were assessed at 24 hours.
# [6] = system: rat NOS1; experiment: Anaerobic reduction of paraquat by NOS1 at 600 nm; Hanes plot; assay type: biochemical
# Method: Anaerobic reduction of paraquat by NOS1 to paraquat.^+ was followed at 600 nm spectrophotometrically and converted to a concentration using the extinction coefficient E600 =13,700 M^-1 cm^-1. Reactions (1 ml) were performed in the NADPH oxidation buffer described above in the absence of L-arginine, dithiothreitol and tetrahydrobiopterin. Reactions were initiated by the addition of 2 U of NOS1 and followed for 3 minutes at 37° C.
# [7] = Working Example XIII: accident victim with hypotension; assay type: in vivo, human; conditions: IV 0.4 milligrams per kilogram over 2 hours
# Method: A accident victim presents with a blood pressure of 80/60 and a hematocrit of 20. They are bleeding profusely from an abdominal would and doctors are having difficulty maintaining their blood pressure with fluid resuscitation. They are begun on an intravenous drip of paraquat of 0.4 milligrams per kilogram over 2 hours.
smiles,measurement,setting,value
C[n+]1ccc(-c2cc[n+](C)cc2)cc1 [paraquat],"EDRF responses / vessel constriction, conclusion",[1]; conclusion of Background Example 3,blocks EDRF responses and thereby constricts blood vessels
same,"inhibition of EDRF-induced relaxation, in words","[1]; increasing paraquat, 15 min before acetylcholine, phenylephrine 1 μM, FIG. 3(a)",dose-dependent inhibition of EDRF-induced relaxation
same,aconitase activity,[2]; paraquat 0.1 mM plus 250 μM DETA NONOate,not seen in the paraquat/DETA NONOate group
same,aconitase activity,[2]; paraquat 0.1 mM plus cytomix,a decrease in aconitase activity is seen
same,tumor regression,[3],tumor regresses and is not longer detectable
same,increase in NADPH oxidation over the basal rate,"[4]; 25 μM paraquat without NOS inhibitor, FIG. 2(a)",about three-fold
same,NOS diaphorase / superoxide formation,[4]; conclusion of Background Example 1,is an NOS diaphorase and causes superoxide formation
same,paraquat diaphorase activity of NOS1,[4]; in the presence of 1 mM L-arginine,NOS1 was found to exhibit paraquat diaphorase activity
same,NADPH oxidation,"[4]; increasing paraquat concentrations, 1 mM L-arginine, pH 7.4, 37° C., FIG. 1(a)",concentration-dependent increase in NADPH oxidation
same,nitrotyrosine staining,[5],A decrease in nitrotyrosine staining
same,paraquat reductase activity (Hanes plot),[6]; FIG. 1(d),increased paraquat reduction with increasing paraquat concentration
same,reduction of paraquat to its cation radical (600 nm),"[6]; anaerobic, without L-arginine, 37° C., 3 minutes, FIG. 1(c)",direct and progressive reduction of paraquat to its cation radical
same,patient condition,[7],the patient is stabilized
same,blood pressure,[7]; from 80/60,100/70
